According to patent US10239871B2, “Compounds and methods for regulating integrins” (ADHAERE PHARMACEUTICALS, INC., priority 2012, dated 2019):

Legend:
Cl66 cells = assay: Orthotopic Cl66 mammary adenocarcinoma tumor growth, with or without Taxol; type: in vivo; conditions: BALB/c mice
Description: The syngeneic murine mammary adenocarcinoma cell line Cl66 (moderately metastatic and is related to the highly metastatic 4T1 cell line) was orthotopically introduced in Balb/c animals, by injecting ˜5×10^5 Cl66 cells under the left mammary fat pad of WT BALB/c mice (approx. 8-10 weeks old). The tumor size was measured using calipers every other day until the end of the experiment (approx. 5 weeks). 7-days post implantation, the tumors in all animals became palpable, with an average size of ˜100 mm3. At that time, animals in each group were treated as described. LA1 was administered daily for the first two weeks and then every other day until the end of the experiment. Animals in Group 1 received Saline injections, as control. […] It can also enhance the efficacy of traditional chemotherapy in various cancers, including breast cancer, to produce a synergistic response to the treatment. It can also reduce the incidence and the size of metastases.

C57BL/6J mice = assay: Survival after sublethal total body irradiation; type: in vivo; conditions: 20 μg/animal for seven days
Description: Control groups (16 mice per group) of 6-8 weeks old C57BL/6J mice received a single sublethal dose (6 Gy) of total body radiation (TBI) and were monitored for survival with radiation alone. The experimental groups (16 mice per group) of 6-8 weeks old C57BL/6J received a single sublethal dose (6 Gy) of total body radiation (TBI) and were administered leukadherin LA1 (20 μg/animal) for seven consecutive days. Additionally, two additional control groups of animals were monitored—animals with no treatment at all or animals that were administered LA1 for seven consecutive days in the absence of any irradiation.

[1] = system: T cells from the draining lymph nodes; assay: IFN production by antigen-reactive T cells (MOG-peptide); type: cell-based, mice; conditions: antigen dose-dependent
Description: Additionally, LA1 decreased IFN-[…] production by T-cells in an antigen dose-dependent fashion (MOG-peptide, data not shown) when antigen-reactive T cells from the draining lymph nodes of mice were assessed.

[2] = system: neutrophils, hepatocytes, hERG; assay: Pilot in vitro ADME assay (neutrophils, hepatocytes, hERG); conditions: at up to 100 µM
neutrophil chemotaxis = conditions: previously shown [55]; cited from earlier work
CD11b/CD18 = CD11b/CD18 (Homo sapiens, UniProt P11215); assay: Flow cytometry with conformation reporter mAbs KIM127 and 24 on K562 WT cells; type: cell-based; parameters: K562 cells stably transfected with plasmid encoding wild-type integrin CD11b/CD18; expressed in transfected cells; conditions: LA1 15 uM, Mn2+ 1 mM; vs basal
Description: Flow cytometric analyses of K562 WT cells were performed according to published protocols. Briefly, cells were suspended in the assay buffer (Tris-buffered saline (TBS) containing 1 mM of ions Ca2+ and/or Mg2+ and 0.1% BSA). Cells ([…]) were incubated with primary mAb (1:100 dilution of IB4 ascites or the isotype controls, 1:50 […] and 24 and the relevant isotype controls, where incubations were performed at 37 °C) for 30 minutes. Subsequently, the cells were washed three times with the assay buffer and incubated with goat anti-mouse-APC (1 µg/ml, Invitrogen) for 20 minutes at 4° C. Cells were washed twice with the assay buffer and analyzed using FACSCaliber flow cytometer (BD Biosciences, CA), counting at least 10,000 events. Data was analyzed using the CellQuest software (BD Biosciences). Data shown is from one of at least three independent experiments.
Ligand binding induces extension of the integrin heterodimer and large, global conformational changes leading to outside-in signaling. Binding of activating antibodies also induces global conformational changes in the integrin heterodimer and such large conformational changes mimic those induced upon ligand binding. […] Thus, mAb KIM127 is often used as a reporter for the extended conformation of P2 integrins. […]

Structure (SMILES): O=C(O)c1ccc(-c2ccc(/C=C3\SC(=S)N(Cc4ccccc4)C3=O)o2)cc1 [LA1]
- rate of tumor growth, co-treatment with Taxol (Cl66 cells): highest reduction in the rate of tumor growth
- rate of tumor growth, single agent (Cl66 cells; vs vehicle): significant reduction in the rate of tumor growth
- animal mortality (C57BL/6J mice; with or without 6 Gy TBI): did not result in any increase in animal mortality
- effect on survival after sublethal TBI (C57BL/6J mice; 6 Gy TBI): protective effect
- IFN-[…] production by T-cells [1]: decreased
- adverse findings in pilot in vitro ADME assay [2]: no adverse findings
- neutrophil chemotaxis (neutrophil chemotaxis): impairs neutrophil chemotaxis
- binding of conformation reporter KIM127 (CD11b/CD18): very small increase
- binding of conformation reporter mAb 24 (CD11b/CD18): small increase
